Measured values as given in a melting point compilation (Tetko et al.; mined from patent text by program, amines drawn as free bases though some values may be those of a salt).

| SMILES | melting point [°C] |
| --- | --- |
| CCOC(=O)C(=O)c1cn(Cc2ccccc2)c2cc(-c3ccc(C(F)(F)F)cc3)ccc12 | 109 to 110 |
| C#CCN1C(=O)NC(C)(C)C1=O | 156 to 160 |
| COc1ccc(C2CN(C(C)=O)C(=O)O2)cc1OC (stereo unspecified) | 175 to 182 |
| O=C(Nc1cccnc1NCc1ccc(Cl)cc1)c1ccccc1F | 76 to 78 |
| OCCCn1c(S)nc2ccccc21 | 110 |
| Cc1cc(-c2nc3cccnn3c2-c2ccnc(NC(=O)CCS(C)(=O)=O)c2)ccc1F | 227 to 228 |
| CC(=O)SCc1ccc(C#Cc2ccc(C=O)cc2)cc1 | 128 to 129 |
| CC1(O)CC(=O)OC(CCCc2ccc(OCc3ccccc3)cc2)C1Br (stereo unspecified) | 100 to 101 |
| CS(=O)(=O)c1ccc(-c2cc(C(CCCO[N+](=O)[O-])=NO)nn2-c2ccccc2)cc1 | 128 to 130 |
| COC(C)Cc1nc2c(N)nc3ccccc3c2n1CC(C)C (stereo unspecified) | 139 to 141 |
| O=C1CC(=O)C(CCCCCCCO)C1=O (stereo unspecified) | 121 to 124 |
| CC(=O)Nc1ccc(OC2CCC3C4CCC5N(C)C(=O)CCC5(C)C4CCC23C)cc1 (stereo unspecified) | 340 |
| CC(C)C(C#N)c1ccc(O)c(O)c1 (stereo unspecified) | 134 to 136 |
| CN1CCc2c(O)c(F)cc3c(=O)c(C(=O)O)cn1c23 | > 290 |
| CCc1cccc2c3c([nH]c12)C(C)(CC(=O)O)CCCC3 (stereo unspecified) | 148 to 151 |
| Cc1ccc(-c2c(-c3ccc(S(N)(=O)=O)cc3)cnn(-c3ccc(F)c(F)c3)c2=O)cc1F | 198 to 200 |
| O=C(c1ccc(Cl)cc1)c1cc2ccccc2cn1 | 126 to 127 |
| Cc1ccc2cccc(OCc3c(Cl)ccc(S(=O)(=O)N4CCCC4C(=O)NCCCCCO)c3Cl)c2n1 (stereo unspecified) | 64 |
| CN(C)CCNc1ccc(S(C)(=O)=O)cc1[N+](=O)[O-] | 130 to 131 |
| O=C(O)Cc1cc2c(s1)-c1ccccc1CC2 | 103 to 105 |
| CCCCc1ncc(CC(Cc2cccs2)C(=O)O)n1Cc1ccc(C(=O)O)cc1 (stereo unspecified) | 175 |
| COc1ccc(C(=O)Nc2cc(NC(=O)c3cccc(N(C)C)c3)ccc2Cl)cc1OC | 98 to 99 |
| COC(=O)c1ccccc1S(=O)(=O)Cc1c(O)ccc2c1CCCC2=O | 194 to 196 |
| COc1ccc(-c2nc(N)c(C(N)=O)nc2-c2ccc(=O)n(C(C)C)c2)cc1 | 244 |

| SMILES | melting point [°C] |
| --- | --- |
| CCC1(C)OC(c2ccc(S(C)(=O)=O)cc2)=C(c2cc(F)cc(F)c2)C1=O (stereo unspecified) | 122 to 124 |
| COC(=O)c1ccc(C2C(C#N)=C(CC(C)C)NC(C)=C2C(=O)OC(C)(C)C)cc1 (stereo unspecified) | 191 to 193 |
| COc1nc(OC)c(I)c(C(=O)O)n1 | 125 to 126 |
| CC(C)NCC1CCN(c2c(F)cc3c(=O)c(C(=O)O)cn(C4CC4)c3c2F)C1 (stereo unspecified) | 218 to 221 |
| COc1ccc(C(=O)Nc2cc(C(F)(F)F)c(Br)cc2S(N)(=O)=O)cc1 | 321 |
| N#CCCCN1CCC(Nc2nc3ccccc3n2Cc2ccc(F)cc2)CC1 | 130 |
| CCCOc1ccc2nc(NC(=O)OCC)sc2c1 | 175 to 177 |
| COc1ccc2c(N)c([N+](=O)[O-])sc2c1 | > 250 |
| CCCCCCOc1ccc(-c2ccc(-c3ccc(CCCC)s3)c(F)c2)cc1 | 66 |
| CC(C)(CO)CNC(=O)c1ccc2c(c1)C(=NNc1ccc(S(N)(=O)=O)cc1)C(=O)N2 | > 230 |
| Cc1cnc2sc(SCc3ccccc3)nn2c1=O | 130 to 132 |
| COc1cc(Nc2nccc(-c3ccc(N4CCC(O)CC4)nc3)n2)cc(OC)c1OC | 127 to 128 |
| COc1ccnc(CSc2nc3cc(Cl)c(Cl)cc3[nH]2)c1C | 254 to 256 |
| CC(C)C(=O)Nc1ccn2nc(-c3ccccc3)c(-c3ccc(=O)n(C(C)C)n3)c2c1 | 199 to 200 |
| N#CCCNC(=O)C1=CC(CF)(CF)Oc2ccc(C(F)(F)C(F)(F)F)cc21 | 144 to 145 |
| CC(C)(C)NS(=O)(=O)c1c(S)cccc1C(F)(F)F | 139 |
| CC1(C)OC(=O)C(Oc2ccc(Br)cc2)=C1c1ccc(S(C)(=O)=O)cc1 | 150 to 152 |
| Nc1ccc(OC2(c3ccccc3)CCN(Cc3ccccc3)CC2)cc1 | 124 to 126 |
| CC1CC2=CC(=O)CCC2C2C(O)CC3(C)C(=O)CCC3C12 (stereo unspecified) | 200 |
| Cc1c(C(=O)Nc2ccc(N3CCC(N4CCOCC4)CC3)c(C#N)c2)cnn1-c1cccc(C(F)(F)F)c1 | 215 to 216 |
| OC1CCN(c2cc3nc(S)[nH]c3cc2F)CC1 | 268 to 269 |
| CC(C)(C)COC(=O)c1cc(Cl)c(F)c(Cl)c1F | 38 to 42 |
| O=C(O)C1=CC=CC(C(=O)c2ccc(O)c(O)c2)(C(=O)c2ccc(O)c(O)c2)C1 | 254 to 256 |
| Nc1c(Cl)cc(C(O)CNCCCCCOCCc2ccccc2)cc1C(F)(F)F (stereo unspecified) | 70 to 71.5 |

| SMILES | melting point [°C] |
| --- | --- |
| COc1ccc(-c2coc3ccc(C(=O)NN)cc23)cc1 | 184 to 185 |
| CCn1ncc2c(NCC3CCCC(O)C3)c3cc([N+](=O)[O-])ccc3nc21 (stereo unspecified) | 236 to 238 |
| O=C1OC(O)c2c(Cl)cccc21 (stereo unspecified) | 120 to 122 |
| CCOP(=O)(OCC)c1cccc(OCc2ccc3ccccc3c2)c1 | 55 to 57 |
| Oc1ncncc1Oc1ccccc1 | 186 to 188 |
| CCNC(=O)c1c(Cl)cccc1[Si](C)(C)CBr | 98 to 99 |
| O=C(c1ccccc1)c1c(Cl)cc2n1CCC2C(=O)O (stereo unspecified) | 190 |
| CCOC(=O)c1cn(Cc2c(F)cccc2F)c2cc(Br)c(CBr)cc2c1=O | 184 to 187 |
| O=C(O)CCCCN1CCN2c3ccccc3Cc3ccccc3C2C1 (stereo unspecified) | 218 to 219 |
| CCCc1c(-c2cc(=O)c3c(O)cc(OCC(=O)OCC)cc3o2)ccc(OC)c1O | 138 |
| CCCCCCCCCCCCCCOc1cccc(C(=O)N(CC(=O)O)CC(=O)O)c1 | 96 to 99 |
| COc1ccc(N2C(=O)O[C@H](COC(=O)c3ccc([N+](=O)[O-])cc3)[C@@H]2C)cc1 | 138 to 140 |
| O=C(NC1CCCC1)c1cc2ccncc2[nH]1 | 220 to 224 |
| CCCOC(=O)Nc1cccc(NC(=O)C=C(C)OC)c1 | 115 |
| CCOC(=O)c1c(Cn2cncn2)nc2sc3c(c2c1-c1ccc(OC)c(OC)c1)CCN(C(=O)c1ccccc1)C3 | 193 to 194 |
| CCNC(C)CCNC(CC(=O)O)C(=O)OC1CCCCC1 (stereo unspecified) | 124 to 128 |
| C[C@H]1[C@H](c2ccccc2)N(C)C(=O)N1C(=O)NC1CCCCC1 (relative stereo) | 108 |
| COc1cc(OC)c(-c2cccs2)cc1/C=C/C(=O)c1ccc(S(=O)(=O)Nc2ccon2)cc1 | 198 to 199 |
| O=C1NC(=O)C2(N1)C(=O)N(Cc1ccc(Cl)c(Cl)c1)c1ccc([N+](=O)[O-])cc12 (stereo unspecified) | 245 to 246 |
| CC(=O)Nc1ccc(C2=NN(C(=O)C3CC3)C(C)Cc3cc4c(cc32)OCO4)cc1 (stereo unspecified) | 242 to 243 |
| C=CCC(C#N)(C#N)Cc1ccc(C#N)cc1 | 81.9 |
| CCOC(=O)c1cn(-c2nnc(C)s2)c2nc(N3CC[C@H](N)C3)c(F)cc2c1=O | 265 to 268 |
| CC1CCC(C(C)C)C(C(=O)NC(C)(C)CO)C1 (stereo unspecified) | 123 |
